Test results: patent US4879295A, “N-tetrazolyl thiazolecarboxyamide derivatives and their use” (Sawai Pharmaceutical Co., Ltd., priority 1986, dated 1989)

How the values were obtained:
[1] = test system: passive cutaneous anaphylaxis (PCA); assay: Anti-passive cutaneous anaphylaxis (PCA) activity in rats, P.O. only (TEST EXAMPLE 2); format: in vivo, rat (Wistar strain male); details: 1 hour before elicitation
Description: (§1) Wistar strain male rats (6 weeks old) were purchased from Shizuoka Experimental Animal Agricultural Cooperative (Japan), habituated to a breeding environment for 1 week before using for the experiment.
(§2) Thus, Ascaris suum extract was dinitrophenylated (DNP-As) and infused subcutaneously together with dead Bordetella pertussis at four sites on the foot-pad. After 5 days, the rats were boostered with DNP-As (1 mg) at the dosal muscle. After 3 days, bloods samples were collected and serum was separated which was used as anti DNP-As antiserum. The titer of the antiserum was measured by rats 48-hours PCA and found to be 1:200.
Rats were sensitized with 35 times dilution of anti DNP-As antiserum administered at two sites in the pre-clipped right dosal skin. […] The supernatant was assayed for absorption at 620 nm and the exudation of Evans blue was determined. […]

[2] = test system: passive cutaneous anaphylaxis (PCA); assay: Anti-passive cutaneous anaphylaxis (PCA) activity in rats, 48-hours PCA (TEST EXAMPLE 1); format: in vivo, rat (Wistar strain male); details: Rattus norvegicus
Description: Anti-passive cutaneous anaphylaxis (PCA) activity in rats
as §1
(2) Preparation of antiserum
Preparation of antiserum was carried out according to the method described in J. Immunol. 106, 1002-1011 (1971).
as §2
Rats were sensitized with 35 times dilution of anti DNP-As antiserum administered at two sites in the pre-clipped right dosal skin. After 48 hours, DNP-As (500 μg in 0.5% Evans blue-physiological saline (1 ml) was administered into caudal vein to elicit the reaction. Then, 30 minutes later, the animals were decapitated, the dosal skin was peeled, two sensitized areas as well as one control area were cut off and analyzed for Evans blue exudation which was used as an indicative of the reaction according to the method disclosed in Microbiol. Immunol. 22, 89-101 (1978). Thus, cut skins were treated with 1N-NaOH (1 ml) and incubated at 37° C. for 16 hours to dissolve the skin tissue. A mixed solution (9 ml) of 0.6N-phosphoric acid-acetone (5:13) was added and the mixture was centrifuged (300 r.p.m) for 15 minutes. The supernatant was assayed for absorption at 620 nm and the exudation of Evans blue was determined. Test compounds (I) were administered either into caudal vein 5 minutes before the elicitation of the reaction, or perorally as a suspension in 0.5% 1 hour before the elicitation.

[3] = iv, I.V. (caudal vein), 5 minutes before elicitation
[4] = po, P.O., 1 hour before elicitation

Cc1ccc(-c2nc(C(=O)Nc3nnn[nH]3)c(C)s2)s1 [Compound I-42, 2-(5-Methyl-2-thienyl)-5-methyl-N-(1H-tetrazole-5-yl)-4-thiazolecarboxamide] showed an Inhibition ([1]; 25 mg/kg) of 73%.

COc1ccc(O)c(-c2nc(C(=O)Nc3nnn[nH]3)cs2)c1 [Compound I-20, 2-(2-hydroxy-5-methoxyphenyl)-N-(1H-tetrazole-5-yl)-4-thiazolecarboxamide] was tested, and the inhibition in vivo at 2 mg/kg [2, 3] was 93%.

With O=C(Nc1nnn[nH]1)c1csc(-c2ccccc2OCc2ccccc2)n1 [Compound I-23, 2-(2-benzyloxyphenyl)-N-(1H-tetrazole-5-yl)-4-thiazolecarboxamide] the inhibition in vivo at 2 mg/kg [2, 3] was 98%.

With O=C(Nc1nnn[nH]1)c1csc(-c2cc(Cl)ccc2O)n1 [Compound I-19, 2-(5-chloro-2-hydroxyphenyl)-N-(1H-tetrazole-5-yl)-4-thiazolecarboxamide] the inhibition in vivo at 2 mg/kg [2, 3] was 97%.

Work on COc1ccc(/C=C/C(=O)Nc2ccccc2C(=O)O)cc1OC [Tranilast, tranilast, reference compound] yielded an inhibition in vivo at 50 mg/kg [2, 4] of 0% and an Inhibition ([1]; 50 mg/kg) of 0%.

COc1cccc(-c2nc(C(=O)Nc3nnn[nH]3)cs2)c1 [Compound I-3, 2-(3-methoxyphenyl)-N-(1H-tetrazole-5-yl)-4-thiazolecarboxamide] showed an inhibition in vivo at 2 mg/kg [2, 3] of 99% and an inhibition in vivo at 30 mg/kg [2, 4] of 77%.

Work on O=C(O)c1cc(=O)c2c(OCC(O)COc3cccc4oc(C(=O)O)cc(=O)c34)cccc2o1 [DSCG, disodium cromoglicate, reference compound] yielded an inhibition in vivo at 5 mg/kg ([2]; iv, I.V. (caudal vein), 5 mg/kg, 5 minutes before elicitation) of 92%.

In the case of COc1ccccc1-c1nc(C(=O)Nc2nnn[nH]2)cs1 [Compound I-2], the inhibition in vivo at 2 mg/kg [2, 3] is reported as 99% and the inhibition in vivo at 50 mg/kg [2, 4] is reported as 60%.

For Cc1ccc(O)c(-c2nc(C(=O)Nc3nnn[nH]3)cs2)c1 [Compound I-22, 2-(2-hydroxy-5-methylphenyl)-N-(1H-tetrazole-5-yl)-4-thiazolecarboxamide], the inhibition in vivo at 2 mg/kg [2, 3] was 81%.

In the case of Cc1ccc(-c2nc(C(=O)Nc3nnn[nH]3)c(C)s2)cc1 [Compound I-27, 2-(4-methylphenyl)-5-methyl-N-(1H-tetrazole-5-yl)-4-thiazolecarboxamide], the inhibition in vivo at 25 mg/kg ([2]; po, P.O., 25 mg/kg, 1 hour before elicitation) is reported as 91%.

Compound O=C(Nc1nnn[nH]1)c1csc(-c2cc([N+](=O)[O-])ccc2O)n1 [Compound I-21, 2-(2-hydroxy-5-nitrophenyl)-N-(1H-tetrazole-5-yl)-4-thiazolecarboxamide] has an inhibition in vivo at 2 mg/kg [2, 3] of 98%.

In the case of O=C(Nc1nnn[nH]1)c1csc(-c2ccccc2O)n1 [Compound I-1], the inhibition in vivo at 0.5 mg/kg ([2]; iv, I.V. (caudal vein), 0.5 mg/kg, 5 minutes before elicitation) is reported as 67%, the inhibition in vivo at 1.5 mg/kg ([2]; iv, I.V. (caudal vein), 1.5 mg/kg, 5 minutes before elicitation) is reported as 98% and the inhibition in vivo at 2 mg/kg [2, 3] is reported as 99%.

Work on O=C(Nc1nnn[nH]1)c1csc(-c2cccc(C(F)(F)F)c2)n1 [Compound I-17, 2-(3-trifluoromethylphenyl)-N-(1H-tetrazole-5-yl)-4-thiazolecarboxamide] yielded an inhibition in vivo at 2 mg/kg [2, 3] of 98%.

COc1ccc(-c2nc(C(=O)Nc3nnn[nH]3)cs2)cc1 [Compound I-4] was tested, and the inhibition in vivo at 2 mg/kg [2, 3] was 98%.

Compound Cc1ccc(-c2nc(C(=O)Nc3nnn[nH]3)cs2)cc1 [Compound I-7] has an inhibition in vivo at 30 mg/kg [2, 4] of 76%.
